Reference: patent publication US8034923B1, “Reagents for reversibly terminating primer extension” (priority 2009, dated 2011)
One block for each molecule: values may come before it.

Key:
[1] = Cleavage of 3′-O-aminothymidine 1b with aqueous HONO and no cosolvent; format: physicochemical
Procedure: (§1) To an aqueous solution of 3′-O-aminothymidine (1b, 20 mM, 2 μL) was added aqueous nitrous acid (350-700 mM NaNO2/1 M NaOAc, 50 μL, pH 5.5-5.75). The resulting pH was measured with a microelectrode (accuracy ca. ±0.02). After 1 or 2 min at room temperature, the reaction was quenched by the addition of K-phosphate buffer (1 M, 200 μL, pH 7), and analyzed by analytical reverse-phase HPLC (Waters NovaPak C-18 4 μm, 3.9×150 mm, with guard column Waters NovaPak C-18 4 μm, 3.9×15 mm, eluent A=25 mM TEAA pH 7, eluent B=acetonitrile, gradient from 3% B to 13% B in 20 min, flow rate=0.5 mL/min, Rt=product: 8 min; starting material: 11 min.). The amount of cleavage was determined by integrating (267 nm) the peaks of the remaining 1b and the product (thymidine). The rates are as follows: As control, the natural nucleosides were treated as follows: An aqueous solution of 2′-deoxyguanosine or 2′-deoxyadenosine or 2′-deoxycytidine (20 mM, 30 μL) was treated with aqueous nitrous acid (700 mM NaNO2, 1 M NaOAc, pH 5.5, 500 μL) at room temperature for 72 h (i.e. 4320 min). An aliquot (50 μL) was removed, neutralized by the addition of K-phosphate buffer (1 M, 200 μL, pH 7), and analyzed by analytical reverse-phase HPLC (Waters NovaPak C-18 4 μm, 3.9×150 mm, with guard column Waters NovaPak C-18 4 μm, 3.9×15 mm. eluent A=25 mM TEAA pH 7, eluent B=acetonitrile, gradient from 0% B to 3% B in 10 min, then to 30% B in 20 min, flow rate=0.5 mL/min, Rt=dG: 14 min, dA: 18 min, dC: 8 min). The amount of decomposition was determined by integrating (260 nm) the peaks of the remaining starting material (nucleoside) and the product(s).

[2] = target: T1, Taq polymerase from New England Biolabs (Thermus aquaticus, UniProt P19821); assay: Standing start primer-extension assay; format: biochemical; settings: 100 μM triphosphate, 72° C., 2 min
T1 construct: purchased New England Biolabs
T1 sequence (P19821 whole entry): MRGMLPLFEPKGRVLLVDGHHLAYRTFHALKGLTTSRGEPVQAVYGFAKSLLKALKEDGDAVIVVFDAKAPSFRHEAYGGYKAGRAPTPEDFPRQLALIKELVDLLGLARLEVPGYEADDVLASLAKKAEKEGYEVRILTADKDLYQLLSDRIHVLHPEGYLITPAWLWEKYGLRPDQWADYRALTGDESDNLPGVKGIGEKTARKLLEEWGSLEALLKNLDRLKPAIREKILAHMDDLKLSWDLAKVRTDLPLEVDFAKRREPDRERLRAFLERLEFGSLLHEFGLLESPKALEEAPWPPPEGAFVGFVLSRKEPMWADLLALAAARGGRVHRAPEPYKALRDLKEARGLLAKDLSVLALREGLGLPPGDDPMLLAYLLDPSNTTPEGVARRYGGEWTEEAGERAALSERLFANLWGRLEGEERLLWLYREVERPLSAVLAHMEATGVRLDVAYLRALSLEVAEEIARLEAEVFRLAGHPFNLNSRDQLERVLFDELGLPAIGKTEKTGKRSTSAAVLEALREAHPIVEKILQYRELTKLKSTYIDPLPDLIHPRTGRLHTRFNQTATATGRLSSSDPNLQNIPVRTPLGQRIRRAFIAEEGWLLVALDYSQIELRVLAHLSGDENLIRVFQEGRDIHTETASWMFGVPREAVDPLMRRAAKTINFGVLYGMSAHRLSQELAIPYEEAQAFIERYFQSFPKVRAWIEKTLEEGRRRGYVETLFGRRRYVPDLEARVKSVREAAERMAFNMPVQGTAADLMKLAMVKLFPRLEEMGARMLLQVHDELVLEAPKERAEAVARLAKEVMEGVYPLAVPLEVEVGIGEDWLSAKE
Procedure: (§2) Gamma-^32P-labeled primer SEQ ID 1 (2.5 pmol), cold primer SEQ ID 1 (22.5 pmol) and template SEQ ID 2 (30 pmol) were annealed by incubation at 95° C. for […] in NEB ThermoPol Reaction Buffer (20 mM Tris-HCl, 10 mM KCl, 10 mM (NH4)2SO4, 2 mM MgSO4, 0.1% TritonX-100) and slowly cooled to room temperature, followed by the addition of Taq cell-free extract (4 μL, the sole source of polymerase). Then, the mixture (final volume 10 μL) was pre-heated to 72° C. (30 sec), and the extension was initiated by adding either reversibly terminated or irreversibly terminated nucleoside triphosphates (final concentration of 100 μM) or both. After 2 mM, the reaction was quenched by 10 mM EDTA in formamide loading buffer (20 μL) and was resolved on a 14% PAGE (FIGS. 8 and 9).
(§3) 93 Taq polymerase variants from PD library (Table 1) were tested for their ability to incorporate TTP-ONH2. Co-Taq polymerase and the Taq polymerase from New England Biolabs were also tested in parallel as controls. […] Of these variants, eight extended the primer by more than 50% to N+1, performing better than Co-Taq.

[3] = tested on: 93 Taq polymerase variants from PD library; assay: Standing start primer-extension assay, PD library screen; format: biochemical; settings: 100 μM triphosphate, 72° C., 2 min
Procedure: as §2, §3
To explore the potential of these variant polymerases to incorporate the corresponding 2′-, 3′-dideoxynucleotide, they were challenged with ddTTP (FIG. 9). A total of 27 variant polymerases were able to incorporate ddTTP to a detectable extent, while three of these variants converted more than 50% of the primer to n+1 product.

[4] = target: T2, PD-42 (Taq A597T, L616A, F667Y, E745H) (Thermus aquaticus, UniProt P19821, A597T/E745H/F667Y/L616A); assay: Primer extension / fidelity test with PD-42; format: biochemical; settings: 100 μM, 72° C.
T2 construct: made in house; pASK-IBA43plus vector
T2 sequence (P19821 whole entry A597T/L616A/F667Y/E745H): as the sequence (P19821 whole entry) above, with A597T, L616A, F667Y, E745H counted along it
Procedure: as §2
In a 10 μL reaction volume, γ^32P-labeled primer SEQ ID 1([…]), cold primer SEQ ID 1 ([…]) and four kinds of 36 nt long template ([…]) (see above) were annealed respectively by incubation at 95° C. for 5 min and slow cooled to room temperature. 1 (0.25 μg/μL) of PD-42 and 58 (polymerases were purified by Qiagen Ni-NTA Spin Kit) were then added to reactions and incubated at 72° C. for 2 min. Reactions were initiated by the addition of dNTP-ONH2 or ddNTP (Final concentration of 100 μM) (refer to FIG. 13 for specifics) and were resolved on a 14% PAGE.
Two of the 93 variants that performed well with both dTTP-3′-ONH2 and ddTTP were further examined: PD-42 (A597T, L616A, F667Y, E745H) and PD-58 (E520G, K540I, L616A).

[5] = target: T3, PD-58 (E520G, K540I, L616A) (Thermus aquaticus, UniProt P19821, E520G/K540I/L616A); assay: Primer extension / fidelity test with PD-58; format: biochemical; settings: 100 μM, 72° C.
T3 construct: made in house; pASK-IBA43plus vector
T3 sequence (P19821 whole entry E520G/K540I/L616A): as the sequence (P19821 whole entry) above, with E520G, K540I, L616A counted along it
Procedure: To determine whether HONO could cleave the 3′-terminal ONH2 group from a template-bound oligonucleotide and permit subsequent primer extension in a cycle of the type needed for sequencing using cyclic reversible termination, a 5′-biotinylated template that called for incorporation of two consecutive T's opposite the two consecutive template A′ s was used. Streptavidin on magnetic beads was used to recover products. In the first cycle, beads were incubated (72° C., 2 min) with PD-58 polymerase in the presence of T-ONH2 triphosphate (100 μM). Then, the products were treated with buffered sodium nitrite/HONO to cleave the —ONH2 group, generating a free 3′-OH group. […] This was indicated by a slower moving band arising from the reversibly terminated N+1 product.
as §2, with “After 2 mM, the reaction was quenched by 10 mM EDTA in formamide loading buffer (20 μL) and was resolved on a 14% PAGE (FIGS. 8 and 9).” left out

[6] = Treatment of natural nucleosides with aqueous nitrous acid (control, decomposition by HPLC); format: physicochemical; settings: 700 mM NaNO2, 1 M NaOAc, pH 5.5, room temperature; for oxidation 2 min (extrapolated): extrapolated to 2 min
Procedure: as §1

[7] = target: Terminal Transferase (TdT) (Bos taurus, UniProt P06526); assay: Tailing of reversible terminators using terminal transferase; format: biochemical; settings: 5 μM to 250 μM terminator, 37° C., 1 hour, 8% PAGE
Chain of Terminal Transferase (TdT) (P06526 whole entry): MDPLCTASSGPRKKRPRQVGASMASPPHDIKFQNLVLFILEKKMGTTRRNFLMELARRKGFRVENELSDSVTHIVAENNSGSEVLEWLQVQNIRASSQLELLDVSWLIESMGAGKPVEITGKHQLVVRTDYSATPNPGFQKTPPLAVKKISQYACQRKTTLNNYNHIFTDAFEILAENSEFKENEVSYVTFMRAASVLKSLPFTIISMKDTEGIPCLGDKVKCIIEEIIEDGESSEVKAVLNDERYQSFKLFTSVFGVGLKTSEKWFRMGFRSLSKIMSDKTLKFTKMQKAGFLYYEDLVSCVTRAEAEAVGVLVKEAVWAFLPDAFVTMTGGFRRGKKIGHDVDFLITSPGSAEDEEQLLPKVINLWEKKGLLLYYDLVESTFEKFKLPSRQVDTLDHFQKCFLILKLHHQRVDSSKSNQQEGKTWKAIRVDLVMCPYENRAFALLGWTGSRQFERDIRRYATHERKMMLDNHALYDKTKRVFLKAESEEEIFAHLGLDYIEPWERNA
Procedure: The oligonucleotide SEQ ID 1 was ^32P-5′ labeled using OptiKinase (USB Corporation). Pyrimidine tailing buffer reactions (20 μL) contained 100 mM cacodylate buffer (pH 7.1), 2 mM CoCl2, 0.1 mM DTT, […] of radiolabeled template (0.5 μM), 10 units of Terminal Transferase (TdT), and varying amounts of reversible terminator from 5 μM to 250 μM. Samples were incubated at 37° C. for 1 hour and were terminated by heating at 70° C. for 10 min. Samples were resolved on 8% PAGE. […] If treated with TdT and a composition of the instant invention, the ssDNA would be derivatized with a 3′-ONH2 group. This could then be captured by an aldehyde affixed to a solid support.

[8] = [HONO] 700 mM, pH 5.50, room temperature

Compound: Cc1cn([C@H]2C[C@H](ON)[C@@H](COP(=O)(O)OP(=O)(O)OP(=O)(O)O)O2)c(=O)[nH]c1=O [TTP-ONH2, 3′-O-Amino-thymidine-5′-triphosphate]
N+1 product on incorporation [2]: at most a trace of N+1 product | number of variant polymerases able to incorporate better than NEB Taq [3]: 30 | number of variants that extended more than 50% of the primer to N+1 [3]: eight | share of the PD library mutants able to incorporate better than NEB Taq [3]: 32.3% | incorporation by PD-42 ([4]; PD library screen): best incorporation | incorporation by PD-58 ([5]; PD library screen): best incorporation | primer extension and termination by PD-58 ([5]; template on streptavidin magnetic beads, 2 min): clean N+1 products

Compound: NO[C@H]1C[C@H](n2cnc3c(N)ncnc32)O[C@@H]1COP(=O)(O)OP(=O)(O)OP(=O)(O)O [dATP-ONH2, 3′-O-Amino-2′-deoxyadenosine-5′-triphosphate]
misincorporation product opposite template A (SEQ ID 3) by PD-42 ([4]; PAGE): trace amounts of products

Compound: NO[C@H]1C[C@H](n2ccc(N)nc2=O)O[C@@H]1COP(=O)(O)OP(=O)(O)OP(=O)(O)O [dCTP-ONH2, 3′-O-Amino-2′-deoxycytidine-5′-triphosphate]
primer consumption on TdT tailing [7]: almost all of the primer was remaining | misincorporation product opposite template dC by PD-42 ([4]; PAGE): trace amounts of products

Compound: Cc1cn([C@H]2CC[C@@H](COP(=O)(O)OP(=O)(O)OP(=O)(O)O)O2)c(=O)[nH]c1=O [ddTTP, 2′,3′-dideoxythymidine-5′-triphosphate, reference compound]
number of variant polymerases able to incorporate to a detectable extent [3]: 27 | number of variants that extended more than 50% of the primer to N+1 [3]: three

Continued, values first:

cleavage 2 min ([1]; [HONO] 350 mM, pH 5.50, room temperature): 90% | cleavage 1 min [1, 8]: 98% | cleavage 2 min [1, 8]: >99% | cleavage 2 min ([1]; [HONO] 700 mM, pH 5.65, room temperature): 96%
Compound: Cc1cn([C@H]2C[C@H](ON)[C@@H](CO)O2)c(=O)[nH]c1=O [1b, 3′-O-aminothymidine]

oxidation 72 h [6]: 13% | oxidation 2 min (extrapolated) [6]: <1/10000
Compound: Nc1ncnc2c1ncn2[C@H]1C[C@H](O)[C@@H](CO)O1 [dA, 2′-deoxyadenosine]

oxidation 72 h [6]: 15% | oxidation 2 min (extrapolated) [6]: <1/10000
Compound: Nc1ccn([C@H]2C[C@H](O)[C@@H](CO)O2)c(=O)n1 [dC, 2′-deoxycytidine]

oxidation 72 h [6]: 20% | oxidation 2 min (extrapolated) [6]: <1/10000
Compound: Nc1nc2c(ncn2[C@H]2C[C@H](O)[C@@H](CO)O2)c(=O)[nH]1 [dG, 2′-deoxyguanosine]

primer consumption on TdT tailing [7]: Almost all of the primer was exhausted
Compound: NO[C@H]1C[C@H](n2cnc3c(=O)[nH]c(N)nc32)O[C@@H]1COP(=O)(O)OP(=O)(O)OP(=O)(O)O [dGTP-ONH2, 3′-O-Amino-2′-deoxyguanosine-5′-triphosphate]
